Test results from patent publication US8124032B2, “Microfluidic device and method of using same” (priority 2004, dated 2012).

Test system: single yeast cell (intracellular carboxylesterase, efflux process)
Test: Single-cell FDA metabolism (influx/hydrolysis/efflux), curve fitting to enzymatic model
Type: cell-based, Sacchomyces cereviase
Text: In one of the embodiments of the invention, to study a model of a yeast metabolic process using the microfluidic device of the invention, the inventors selected a cell-permeable fluorogenic substrate, fluorescein diacetate (FDA), which is normally used to determine cell viability^42. After influx of FDA into a yeast cell, the intracellular enzyme carboxylesterase^43 hydrolyzes FDA to fluorescein, which will then be excreted from the cell (through efflux).
To examine the cells in an embodiment of the microfluidic device, the device was placed on the translation stage of an inverted microscope and simultaneous optical observation and fluorescent measurement were carried out. To carry out fluorescent intensity calibration in the microfluidic device, polystyrene beads (6 μm diameter, InSpeck™ Green, Molecular Probes) were used. Three-dimensional liquid flow control was accomplished by either electric or fluid potential.
With electric potential control, only low-conducting liquids, such as G7, H4 could be delivered to the cells (cell 3, 4, 5). The two buffers were G7 (28.5 mM HEPES, 256 mM D-glucose, pH=7.3) and H4 (285 mM HEPES, pH=4.3). 12 μM FDA was used, where appropriate. With fluid potential (<1 mm) control, highly conducting liquids such as YPD, NaCl, KCl, EDTA could also be used.
FIG. 16I depicts the schematic diagram of a yeast cell with a daughter bud, showing the relationship between the concentrations of extracellular FDA (A), intracellular FDA (B) and fluorescein (C) as a function of time (t). The kinetic model can be described by several equations. Equation (1) is the material balance of FDA (B) in the cell. Equation (2) is the material balance of fluorescein (C) in the cell. Equations (1) and (2) were derived from first principles as discussed below.
[formula] The notations are A: extracellular FDA (μM); B: intracellular FDA (μM); C: intracellular fluorescein (μM); S: cell surface area (μm^2) and V: cell volume (μm^3), as calculated from the diameter (μm) of the cell (D1) and its bud (D2); kb: transport coefficient (μm s^−1); Vm (μM s^−1) and Km (μM): Michaelis-Menten kinetic parameters for the carboxylesterase; Ve (μM μm s^−1) and Ke (μM): Michaelis-Menten kinetic parameters for the efflux process.
[formula] Equation (3) represents the increasing rate of the carboxylesterase activity as indicated by the Michaelis-Menten parameter Vm, where k is the rate constant (μM s^−2). Derivation for Equation (1): Material Balance of FDA in the Cell
Here, T0, T1 and T2 are the time at which influx, hydrolysis and efflux start, respectively.
In the self-control mode, when influx is not allowed, kb=0. […] During hydrolysis (T1 to T2), there is no influx and efflux, i.e. kb=0, Vm>0, and Ve=0. Finally, during efflux (after T2), there is no influx and hydrolysis, i.e. kb=0, Vm=0, and Ve>0. In the lost-control mode, kb>0, Vm>0, and Ve>0. In the “death” mode, kb=0, Vm=0, and Ve=0. In this case, the cell appears dead when there is no change in the concentration of cellular fluorescein.
Curve-fitting experiments were also carried out for two other single yeast cells under various stimuli, see FIG. 17.

[1] = cell 3, T0 2140 s, self-control mode
[2] = cell 4, T0 2560 s, self-control mode
[3] = cell 4, T0 4950 s, self-control mode
[4] = cell 4, T0 6590 s, self-control mode
[5] = cell 4, T0 8627 s, lost-control mode
[6] = cell 5, T0 208 s, self-control mode
[7] = cell 5, T0 1030 s, self-control mode
[8] = cell 5, T0 2026 s, self-control mode
[9] = cell 5, T0 3300 s, self-control mode
[10] = cell 5, T0 5600 s, lost-control mode
[11] = cell ‡ (another single yeast cell similar to cell 3), T0 2200 s, self-control mode

## CC(=O)Oc1ccc2c(c1)Oc1cc(OC(C)=O)ccc1C21OC(=O)c2ccccc21 [FDA, fluorescein diacetate]
[1]
  Vm0 (initial value of Vm, carboxylesterase): 0.0012 µM/s
  k (rate constant of increase of Vm): 4 10^−6 μM s^−2
[2]
  Vm0 (initial value of Vm, carboxylesterase): 0.002 µM/s
  k (rate constant of increase of Vm): 25 10^−6 μM s^−2
[3]
  Vm0 (initial value of Vm, carboxylesterase): 0.01 µM/s
  k (rate constant of increase of Vm): 25 10^−6 μM s^−2
[4]
  Vm0 (initial value of Vm, carboxylesterase): 0.04 µM/s
  k (rate constant of increase of Vm): 0 10^−6 μM s^−2
[5]
  Vm0 (initial value of Vm, carboxylesterase): 0.009 µM/s
  k (rate constant of increase of Vm): 0 10^−6 μM s^−2
[6]
  Vm0 (initial value of Vm, carboxylesterase): 0.02 µM/s
  k (rate constant of increase of Vm): 0 10^−6 μM s^−2
[7]
  Vm0 (initial value of Vm, carboxylesterase): 0.005 µM/s
  k (rate constant of increase of Vm): 0 10^−6 μM s^−2
[8]
  Vm0 (initial value of Vm, carboxylesterase): 0.0018 µM/s
  k (rate constant of increase of Vm): 2 10^−6 μM s^−2
[9]
  Vm0 (initial value of Vm, carboxylesterase): 0.004 µM/s
  k (rate constant of increase of Vm): 15 10^−6 μM s^−2
[10]
  Vm0 (initial value of Vm, carboxylesterase): 0.015 µM/s
  k (rate constant of increase of Vm): 0 10^−6 μM s^−2
[11]
  Vm0 (initial value of Vm, carboxylesterase): 0.007 µM/s
  k (rate constant of increase of Vm): 4 10^−6 μM s^−2
